These results are taken from PMC9764288, “Computation-Aided Engineering of Cytochrome P450 for the Production of Pravastatin” (ACS Catalysis, 2022).

As usually defined, the Kd is a measure of binding affinity in units of concentration.

In one series the test system is CYP3A5. More on the design: method as in PMID 19530969. Particulars: cited from earlier work.
In another series the test system is human CYP3A4. The arrangement: method as in PMID 19530969. Particulars: cited from earlier work.
A further series has as its target T1, P450pra +V180I (Amycolatopsis orientalis, UniProt W5VH56, I95T/Q127R/A180I/L236I/A265N).
T1 construct: N-terminal polyhistidine tag, expressed in E. coli
Type of series: binding. The method, then:
(§1) Absorbance spectra (300–800 nm) of P450 variants were measured on a Cary 60 UV–vis spectrophotometer at 25 °C using 3–8 μM protein in buffer A. The pyridine hemochromogen method was used to quantify CYP105AS1 P450 variant heme concentrations and to determine an extinction coefficient at the heme Soret maximum for each variant.[89] For titration, compactin (0.05–0.5 μL) was added from 5 to 50 mM stock solutions in DMSO. The overall absorbance change (ΔAmax) was calculated as Apeak (absorbance maximum) minus Atrough (absorbance minimum) and plotted against the substrate concentration. Data were fitted according to a standard hyperbolic binding equation or a Morrison equation for tight-binding to determine dissociation constants (Kd).[90],[91]
(§2) UV–vis substrate binding studies were conducted to investigate the effect of mutations on compactin binding. […] Probably, the bulky aromatic side chain of the introduced Phe95 residue influenced the binding of compactin, which allowed elimination of the proximal water ligand and full conversion to the high-spin state upon binding of this substrate.

Series [1] addresses T2, P450pra + T95F/V180M (=P450pra100) (Amycolatopsis orientalis, UniProt W5VH56, I95F/Q127R/A180M/L236I/A265N).
T2 construct: N-terminal polyhistidine tag, expressed in E. coli
Type of series: binding. The method, then:
as §1, §2

A further series concerns the target T3, P450pra (Amycolatopsis orientalis, UniProt W5VH56, I95T/Q127R/A180V/L236I/A265N).
T3 construct: N-terminal polyhistidine tag, expressed in E. coli; directed evolution variant
In kind it is binding. The method, then:
as §1, §2

Another series deals with T4, P450pra + T95W (Amycolatopsis orientalis, UniProt W5VH56, I95W/Q127R/A180V/L236I/A265N).
T4 construct: N-terminal polyhistidine tag, expressed in E. coli
Type of series: binding. The method, then:
as §1, §2

For the next series, the target named is T5, P450pra + P80G (Amycolatopsis orientalis, UniProt W5VH56, P80G/I95T/Q127R/A180V/L236I/A265N).
T5 construct: N-terminal polyhistidine tag, expressed in E. coli
In kind it is binding. The method, then:
as §1, §2

In the next series the target is T6, P450pra + F76N (Amycolatopsis orientalis, UniProt W5VH56, F76N/I95T/Q127R/A180V/L236I/A265N).
T6 construct: N-terminal polyhistidine tag, expressed in E. coli
Type of series: binding. The method, then:
as §1, §2

A further series has as its target T7, P450pra + T286I (Amycolatopsis orientalis, UniProt W5VH56, I95T/Q127R/A180V/L236I/A265N/T286I).
T7 construct: N-terminal polyhistidine tag, expressed in E. coli
Type of series: binding. The method, then: as §1, §2

In the next series the target is T8, P450pra + T95F (Amycolatopsis orientalis, UniProt W5VH56, I95F/Q127R/A180V/L236I/A265N).
T8 construct: N-terminal polyhistidine tag, expressed in E. coli
In kind it is binding. The method, then: as §1, §2

For a further series, the target named is T9, P450pra +V180M (Amycolatopsis orientalis, UniProt W5VH56, I95T/Q127R/A180M/L236I/A265N).
T9 construct: N-terminal polyhistidine tag, expressed in E. coli
Type of series: binding. The method, then:
as §1, §2

A further series has as its target T10, CYP105AS1 (Amycolatopsis orientalis, UniProt W5VH56).
T10 construct: N-terminal polyhistidine tag, pBAD vector, expressed in E. coli Top10
T10 sequence (W5VH56 1-401): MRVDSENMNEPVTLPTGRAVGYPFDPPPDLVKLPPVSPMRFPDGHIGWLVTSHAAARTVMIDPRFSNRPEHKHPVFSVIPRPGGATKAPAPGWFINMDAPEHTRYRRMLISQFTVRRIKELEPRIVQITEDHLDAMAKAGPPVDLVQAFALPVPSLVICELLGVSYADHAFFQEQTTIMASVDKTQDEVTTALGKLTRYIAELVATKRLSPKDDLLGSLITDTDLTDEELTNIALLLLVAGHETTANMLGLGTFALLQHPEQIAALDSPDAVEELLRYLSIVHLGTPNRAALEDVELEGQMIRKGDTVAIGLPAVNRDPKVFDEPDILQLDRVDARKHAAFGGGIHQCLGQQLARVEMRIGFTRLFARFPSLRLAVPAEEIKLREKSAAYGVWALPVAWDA
Put plainly: UV-vis spectral (type I Soret shift) titration of 3-8 uM purified P450 with compactin from DMSO stocks at 25 °C in 50 mM potassium phosphate, 300 mM KCl, 10% glycerol, pH 8.0; hyperbolic or Morrison tight-binding fit. The method, then: as §1, §2

T7 sequence (W5VH56 entry or part of it I95T/Q127R/A180V/L236I/A265N/T286I): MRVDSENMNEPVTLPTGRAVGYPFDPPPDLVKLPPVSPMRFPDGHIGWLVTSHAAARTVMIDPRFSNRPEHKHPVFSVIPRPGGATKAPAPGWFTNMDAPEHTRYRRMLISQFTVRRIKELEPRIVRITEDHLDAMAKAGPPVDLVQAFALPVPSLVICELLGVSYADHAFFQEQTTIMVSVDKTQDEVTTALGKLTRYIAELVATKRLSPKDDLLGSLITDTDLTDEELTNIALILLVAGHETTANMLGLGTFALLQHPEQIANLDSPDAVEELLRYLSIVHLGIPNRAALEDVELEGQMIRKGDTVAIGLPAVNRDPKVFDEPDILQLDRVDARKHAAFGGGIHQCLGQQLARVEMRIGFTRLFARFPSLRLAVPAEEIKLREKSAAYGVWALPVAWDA
T2 sequence (W5VH56 entry or part of it I95F/Q127R/A180M/L236I/A265N): as the sequence (W5VH56 entry or part of it I95T/Q127R/A180V/L236I/A265N/T286I) above, with T95F, V180M, I286T counted along it
T1 sequence (W5VH56 entry or part of it I95T/Q127R/A180I/L236I/A265N): as the sequence (W5VH56 entry or part of it I95T/Q127R/A180V/L236I/A265N/T286I) above, with V180I, I286T counted along it
T8 sequence (W5VH56 entry or part of it I95F/Q127R/A180V/L236I/A265N): as the sequence (W5VH56 entry or part of it I95T/Q127R/A180V/L236I/A265N/T286I) above, with T95F, I286T counted along it
T3 sequence (W5VH56 entry or part of it I95T/Q127R/A180V/L236I/A265N): as the sequence (W5VH56 entry or part of it I95T/Q127R/A180V/L236I/A265N/T286I) above, with I286T counted along it
T5 sequence (W5VH56 entry or part of it P80G/I95T/Q127R/A180V/L236I/A265N): as the sequence (W5VH56 entry or part of it I95T/Q127R/A180V/L236I/A265N/T286I) above, with P80G, I286T counted along it
T4 sequence (W5VH56 entry or part of it I95W/Q127R/A180V/L236I/A265N): as the sequence (W5VH56 entry or part of it I95T/Q127R/A180V/L236I/A265N/T286I) above, with T95W, I286T counted along it
T9 sequence (W5VH56 entry or part of it I95T/Q127R/A180M/L236I/A265N): as the sequence (W5VH56 entry or part of it I95T/Q127R/A180V/L236I/A265N/T286I) above, with V180M, I286T counted along it
T6 sequence (W5VH56 entry or part of it F76N/I95T/Q127R/A180V/L236I/A265N): as the sequence (W5VH56 entry or part of it I95T/Q127R/A180V/L236I/A265N/T286I) above, with F76N, I286T counted along it

`CC[C@H](C)C(=O)O[C@H]1C[C@H](O)C=C2C=C[C@H](C)[C@H](CC[C@@H](O)C[C@@H](O)CC(=O)O)[C@H]21` [pravastatin]: the “metabolism by human CYP3A5” value with CYP3A5 is “not significantly metabolized”. In addition, the “metabolism by human CYP3A4” value in the series with human CYP3A4 is given as “not significantly metabolized”.

For the compound `CC[C@H](C)C(=O)O[C@H]1CCC=C2C=C[C@H](C)[C@H](CC[C@@H]3C[C@@H](O)CC(=O)O3)[C@H]21` [compactin, compactin (mevastatin)], the Kd was determined as 1640 ± 130 nM at P450pra +V180I; 130 ± 30 nM in series [1]; 770 ± 70 nM on P450pra; 3.29 ± 0.03 µM at P450pra + T95W; 5.84 ± 0.34 µM on P450pra + P80G; 4.81 ± 0.25 µM at P450pra + F76N. Besides, the Kd was found to be 4.93 ± 0.25 µM at P450pra + T286I, 250 ± 10 nM at P450pra + T95F, 1340 ± 60 nM on P450pra +V180M and 30.3 ± 5.2 µM on CYP105AS1.
